Calls of active or inactive are those of the source. No cut-off for these calls is given here.
Legend:
[1] = system: A2780; assay: Antimitotic activity against human A2780 cells at 10 uM by ATP lite luminescence assay; assay type: functional, cell-based
[2] = system: A2780; assay: Antimitotic activity against human A2780 cells by ATP lite luminescence assay; assay type: functional, cell-based
[3] = system: MCF7; assay: Antimitotic activity against human MCF7 cells by ATP lite luminescence assay; assay type: functional, cell-based
[4] = system: A2780; assay: Ratio of EC50 for dorsomorphin to EC50 for test compound for antimitotic activity against human A2780 cells by ATP lite luminescence assay; assay type: functional
[5] = system: MCF7; assay: Ratio of EC50 for dorsomorphin to EC50 for test compound for antimitotic activity against human MCF7 cells by ATP lite luminescence assay; assay type: functional
[6] = target: T1, Tyrosine-protein kinase JAK1 (Homo sapiens, UniProt P23458); assay: Inhibition of wild-type human partial length JAK1 JH2 pseudokinase domain (R537 to D855 residues) expressed in mammalian expression system assessed as enzyme residual activity at 10 uM by Kinomescan method relative to control
T1 sequence (P23458 whole entry, the tested form may be a part): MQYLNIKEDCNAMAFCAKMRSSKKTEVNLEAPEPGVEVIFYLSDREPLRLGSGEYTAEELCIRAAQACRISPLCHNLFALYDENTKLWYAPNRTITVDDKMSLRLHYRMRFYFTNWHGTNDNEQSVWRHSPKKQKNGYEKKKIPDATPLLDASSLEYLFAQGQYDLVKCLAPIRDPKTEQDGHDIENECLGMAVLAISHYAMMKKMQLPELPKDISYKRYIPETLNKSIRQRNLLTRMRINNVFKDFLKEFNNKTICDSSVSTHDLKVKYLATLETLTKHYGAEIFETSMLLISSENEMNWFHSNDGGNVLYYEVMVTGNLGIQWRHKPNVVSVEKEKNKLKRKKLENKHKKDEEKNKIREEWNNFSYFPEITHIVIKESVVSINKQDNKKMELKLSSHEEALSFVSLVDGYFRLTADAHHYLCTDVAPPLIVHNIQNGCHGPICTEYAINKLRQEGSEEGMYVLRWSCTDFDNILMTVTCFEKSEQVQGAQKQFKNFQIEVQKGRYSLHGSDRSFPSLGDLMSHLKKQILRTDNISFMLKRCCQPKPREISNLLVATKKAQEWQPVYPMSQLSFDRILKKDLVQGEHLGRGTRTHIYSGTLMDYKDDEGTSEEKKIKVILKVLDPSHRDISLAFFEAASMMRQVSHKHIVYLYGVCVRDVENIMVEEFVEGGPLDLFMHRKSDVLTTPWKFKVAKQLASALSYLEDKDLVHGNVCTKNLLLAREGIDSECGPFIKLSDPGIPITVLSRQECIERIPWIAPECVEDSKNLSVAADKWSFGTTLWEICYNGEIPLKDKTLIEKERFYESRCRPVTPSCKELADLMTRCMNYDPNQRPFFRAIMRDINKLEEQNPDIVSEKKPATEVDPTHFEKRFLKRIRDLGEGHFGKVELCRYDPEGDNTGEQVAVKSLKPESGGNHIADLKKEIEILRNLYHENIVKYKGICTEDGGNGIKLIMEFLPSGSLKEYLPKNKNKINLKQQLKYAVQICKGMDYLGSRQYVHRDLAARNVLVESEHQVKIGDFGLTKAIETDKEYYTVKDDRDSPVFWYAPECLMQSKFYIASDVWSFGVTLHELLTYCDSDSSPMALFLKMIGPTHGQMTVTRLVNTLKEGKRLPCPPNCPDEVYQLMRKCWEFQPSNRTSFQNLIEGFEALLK

[7] = target: T2, Phosphatidylinositol 3-kinase catalytic subunit type 3 (Homo sapiens, UniProt Q8NEB9); assay: Inhibition of wild-type human partial length PIK3C3 (S282 to H879 residues) expressed in mammalian expression system assessed as enzyme residual activity at 10 uM by Kinomescan method relative to control
T2 sequence (Q8NEB9 whole entry, the tested form may be a part): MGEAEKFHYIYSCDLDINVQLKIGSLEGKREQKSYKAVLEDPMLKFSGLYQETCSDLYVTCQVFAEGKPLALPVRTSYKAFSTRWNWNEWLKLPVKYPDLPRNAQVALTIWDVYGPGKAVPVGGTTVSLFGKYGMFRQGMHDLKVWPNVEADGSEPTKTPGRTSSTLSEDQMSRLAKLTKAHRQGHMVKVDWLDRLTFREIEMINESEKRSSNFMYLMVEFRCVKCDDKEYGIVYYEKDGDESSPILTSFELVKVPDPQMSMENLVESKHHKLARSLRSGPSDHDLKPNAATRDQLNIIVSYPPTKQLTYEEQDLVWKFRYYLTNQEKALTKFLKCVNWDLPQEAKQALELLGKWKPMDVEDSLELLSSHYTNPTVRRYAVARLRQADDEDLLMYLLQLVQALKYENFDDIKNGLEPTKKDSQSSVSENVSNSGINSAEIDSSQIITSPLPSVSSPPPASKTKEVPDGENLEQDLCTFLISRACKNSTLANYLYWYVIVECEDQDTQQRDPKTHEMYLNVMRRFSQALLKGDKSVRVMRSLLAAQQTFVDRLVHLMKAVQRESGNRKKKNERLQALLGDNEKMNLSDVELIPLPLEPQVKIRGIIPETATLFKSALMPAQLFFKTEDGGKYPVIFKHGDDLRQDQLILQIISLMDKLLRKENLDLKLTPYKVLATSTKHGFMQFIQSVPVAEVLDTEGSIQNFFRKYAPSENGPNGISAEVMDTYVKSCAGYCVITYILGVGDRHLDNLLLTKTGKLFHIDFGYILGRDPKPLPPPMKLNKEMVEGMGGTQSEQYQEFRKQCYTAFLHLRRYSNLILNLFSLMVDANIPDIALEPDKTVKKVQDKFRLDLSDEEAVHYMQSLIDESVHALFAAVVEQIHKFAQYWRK

[8] = target: T3, Ephrin type-B receptor 6 (Homo sapiens) (UniProt O15197); assay: Inhibition of wild-type human partial length EPHB6 (Q634 to P948 residues) expressed in mammalian expression system assessed as enzyme residual activity at 10 uM by Kinomescan method relative to control
T3 sequence (whole entry): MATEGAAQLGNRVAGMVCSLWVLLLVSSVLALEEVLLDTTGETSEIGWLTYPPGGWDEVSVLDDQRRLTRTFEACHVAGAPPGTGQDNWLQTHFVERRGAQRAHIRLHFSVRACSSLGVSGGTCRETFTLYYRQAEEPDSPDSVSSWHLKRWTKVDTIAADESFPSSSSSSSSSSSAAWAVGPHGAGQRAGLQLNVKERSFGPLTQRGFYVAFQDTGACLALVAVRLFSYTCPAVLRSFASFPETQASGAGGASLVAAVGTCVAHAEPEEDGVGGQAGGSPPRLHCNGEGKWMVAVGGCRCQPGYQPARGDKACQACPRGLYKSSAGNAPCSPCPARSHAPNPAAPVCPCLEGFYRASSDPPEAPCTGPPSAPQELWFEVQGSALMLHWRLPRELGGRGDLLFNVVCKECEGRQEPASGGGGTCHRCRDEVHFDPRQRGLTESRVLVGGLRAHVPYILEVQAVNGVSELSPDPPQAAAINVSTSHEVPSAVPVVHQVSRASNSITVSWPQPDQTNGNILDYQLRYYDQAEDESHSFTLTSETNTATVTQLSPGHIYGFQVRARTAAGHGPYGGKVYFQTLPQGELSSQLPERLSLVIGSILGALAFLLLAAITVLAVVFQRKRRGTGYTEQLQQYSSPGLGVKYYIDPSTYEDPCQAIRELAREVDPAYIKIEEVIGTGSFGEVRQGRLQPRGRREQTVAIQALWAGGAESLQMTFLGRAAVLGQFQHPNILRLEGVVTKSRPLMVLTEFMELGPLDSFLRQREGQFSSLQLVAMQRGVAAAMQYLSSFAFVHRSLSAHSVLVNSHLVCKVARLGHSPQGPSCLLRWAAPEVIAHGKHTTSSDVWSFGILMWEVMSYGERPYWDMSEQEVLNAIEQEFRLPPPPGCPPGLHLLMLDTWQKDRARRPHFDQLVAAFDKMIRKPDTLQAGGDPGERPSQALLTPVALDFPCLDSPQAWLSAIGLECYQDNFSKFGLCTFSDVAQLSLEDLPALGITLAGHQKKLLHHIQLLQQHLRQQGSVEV

[9] = target: Non-receptor tyrosine-protein kinase TYK2 (Homo sapiens) (UniProt P29597); assay: Inhibition of wild-type human partial length TYK2 JH2 pseudokinase domain (G556 to D888 residues) expressed in mammalian expression system assessed as enzyme residual activity at 10 uM by Kinomescan method relative to control
Sequence of Non-receptor tyrosine-protein kinase TYK2 (Homo sapiens) (P29597 whole entry, the tested form may be a part): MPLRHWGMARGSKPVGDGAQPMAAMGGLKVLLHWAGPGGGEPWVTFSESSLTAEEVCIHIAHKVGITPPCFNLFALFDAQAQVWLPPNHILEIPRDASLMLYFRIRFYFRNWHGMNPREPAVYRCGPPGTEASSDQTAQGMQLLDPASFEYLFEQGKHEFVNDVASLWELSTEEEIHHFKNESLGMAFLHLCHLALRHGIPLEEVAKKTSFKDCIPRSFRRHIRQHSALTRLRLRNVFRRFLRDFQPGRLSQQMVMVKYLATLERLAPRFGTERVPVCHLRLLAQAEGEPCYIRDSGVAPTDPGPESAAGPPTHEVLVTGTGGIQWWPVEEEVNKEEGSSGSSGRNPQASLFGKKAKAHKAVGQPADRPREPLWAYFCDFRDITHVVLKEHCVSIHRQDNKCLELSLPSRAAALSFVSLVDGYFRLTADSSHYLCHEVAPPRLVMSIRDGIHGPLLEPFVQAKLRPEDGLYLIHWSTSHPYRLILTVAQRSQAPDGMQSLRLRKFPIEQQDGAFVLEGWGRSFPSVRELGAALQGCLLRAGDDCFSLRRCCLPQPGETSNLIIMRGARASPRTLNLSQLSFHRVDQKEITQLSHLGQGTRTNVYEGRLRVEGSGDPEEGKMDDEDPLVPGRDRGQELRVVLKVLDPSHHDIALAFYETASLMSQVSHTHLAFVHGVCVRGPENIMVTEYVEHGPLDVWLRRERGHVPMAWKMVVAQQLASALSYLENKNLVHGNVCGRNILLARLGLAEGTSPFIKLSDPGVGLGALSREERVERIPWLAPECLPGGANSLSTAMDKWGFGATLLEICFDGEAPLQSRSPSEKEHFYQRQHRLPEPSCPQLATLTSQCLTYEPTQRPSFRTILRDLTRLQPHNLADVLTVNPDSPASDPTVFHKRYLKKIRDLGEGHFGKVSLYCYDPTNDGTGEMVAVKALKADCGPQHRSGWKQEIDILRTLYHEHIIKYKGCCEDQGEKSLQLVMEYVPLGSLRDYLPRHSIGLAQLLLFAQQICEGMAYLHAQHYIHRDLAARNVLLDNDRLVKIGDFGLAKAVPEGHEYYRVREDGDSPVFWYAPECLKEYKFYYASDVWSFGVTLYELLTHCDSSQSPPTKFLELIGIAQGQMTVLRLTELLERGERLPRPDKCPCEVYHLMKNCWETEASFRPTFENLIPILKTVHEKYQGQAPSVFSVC

[10] = target: T4, Dual specificity mitogen-activated protein kinase kinase 5 (Homo sapiens) (UniProt Q13163); assay: Inhibition of wild-type human partial length MEK5 (L98 to P448 residues) expressed in mammalian expression system assessed as enzyme residual activity at 10 uM by Kinomescan method relative to control
T4 sequence (whole entry): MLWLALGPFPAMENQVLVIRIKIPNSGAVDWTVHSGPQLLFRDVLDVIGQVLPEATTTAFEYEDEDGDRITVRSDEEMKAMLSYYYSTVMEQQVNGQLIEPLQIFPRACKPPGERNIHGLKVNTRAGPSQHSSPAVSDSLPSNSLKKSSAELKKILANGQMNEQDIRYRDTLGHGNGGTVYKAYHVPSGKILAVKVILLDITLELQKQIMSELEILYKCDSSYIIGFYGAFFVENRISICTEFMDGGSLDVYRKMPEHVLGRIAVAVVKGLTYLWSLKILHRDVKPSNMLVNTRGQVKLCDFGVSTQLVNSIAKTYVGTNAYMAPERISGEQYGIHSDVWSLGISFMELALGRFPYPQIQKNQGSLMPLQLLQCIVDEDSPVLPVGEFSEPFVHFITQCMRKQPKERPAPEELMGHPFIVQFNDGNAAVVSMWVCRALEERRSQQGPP

[11] = target: T1, Tyrosine-protein kinase JAK1; assay: Binding affinity to wild-type human partial length JAK1 JH2 pseudokinase domain (R537 to D855 residues) expressed in mammalian expression system at 10 uM by Kinomescan method relative to control
[12] = target: T2, Phosphatidylinositol 3-kinase catalytic subunit type 3; assay: Binding affinity to wild-type human partial length PIK3C3 (S282 to H879 residues) expressed in mammalian expression system at 10 uM by Kinomescan method relative to control
[13] = species: Homo sapiens; assay: Ratio for inhibition of wild-type human partial length TYK2 JH2 pseudokinase domain (G556 to D888 residues) expressed in mammalian expression system at 10 uM by Kinomescan method relative to control to inhibition of wild-type human partial length JAK1 JH2 pseudokinase domain (R537 to D855 residues) expressed in mammalian expression system at 10 uM by Kinomescan method relative to control

| SMILES | EC50 [2] | EC50 [3] | Activity [1] | other results |
| --- | --- | --- | --- | --- |
| Fc1cccc(-c2cnn3cc(-c4ccc(OCCN5CCCCC5)cc4)cnc23)c1F | 1400 nM | 4300 nM | Active |  |
| c1cc(-c2cnn3cc(-c4ccc(OCCN5CCCCC5)cc4)cnc23)ccn1 [DORSOMORPHIN] | 900 to 1100 nM | 4900 nM |  |  |
| Fc1ccc(-c2cnn3cc(-c4ccc(OCCN5CCCCC5)cc4)cnc23)cc1 | 930 nM | 3600 nM | Active |  |
| Fc1cccc(-c2cnn3cc(-c4ccc(OCCN5CCCCC5)cc4)cnc23)c1 | 1200 nM | 2200 nM | Active | Activity [6]: 41%; Activity [7]: 100%; Activity [8]: < 10%; Activity [9]: < 10% |
| Fc1ccccc1-c1cnn2cc(-c3ccc(OCCN4CCCCC4)cc3)cnc12 | 2700 nM | 2800 nM | Active |  |
| c1ccc2sc(-c3cnn4cccnc34)nc2c1 | 900 nM |  | Active | Activity [6]: 0.8%; Activity [7]: 0.9%; Activity [8]: 9.9%; Activity [9]: 5%; Activity [10]: 3.9%; Kd [11]: 550 nM; Kd [12]: 410 nM; Ratio [13]: 6 |

More lines, main results first:

| EC50 [2] | EC50 [3] | SMILES | Activity [1] | other results |
| --- | --- | --- | --- | --- |
| 520 nM |  | CN1CCN(CCOc2ccc(-c3cnc4c(-c5ccccc5F)cnn4c3)cc2)CC1 | Active | Ratio EC50 [4]: 2; Ratio EC50 [5]: 3 |
| 2300 nM | 1600 nM | FC(F)(F)c1ccc(-c2cnn3cc(-c4ccc(OCCN5CCCCC5)cc4)cnc23)cc1 | Active |  |
| 2900 nM |  | CN1CCN(CCOc2ccc(-c3cnc4c(-c5ccc(C(F)(F)F)cc5)cnn4c3)cc2)CC1 | Active |  |
| 840 nM |  | CN1CCN(CCOc2ccc(-c3cnc4c(-c5cccc(F)c5F)cnn4c3)cc2)CC1 | Active |  |
| 1100 nM |  | CN1CCN(CCOc2ccc(-c3cnc4c(-c5ccc(F)cc5)cnn4c3)cc2)CC1 | Active |  |
| 950 nM |  | CN1CCN(CCOc2ccc(-c3cnc4c(-c5cccc(F)c5)cnn4c3)cc2)CC1 | Active |  |
